From the Kinase Knowledgebase extract (Sharma et al. 2016)

Target: PIK3CA (bovine) (UniProt P32871)
Assay: Inhibition of PIK3CA Kinase Activity

PIK3CA (bovine), sequence (P32871 whole entry, looked up): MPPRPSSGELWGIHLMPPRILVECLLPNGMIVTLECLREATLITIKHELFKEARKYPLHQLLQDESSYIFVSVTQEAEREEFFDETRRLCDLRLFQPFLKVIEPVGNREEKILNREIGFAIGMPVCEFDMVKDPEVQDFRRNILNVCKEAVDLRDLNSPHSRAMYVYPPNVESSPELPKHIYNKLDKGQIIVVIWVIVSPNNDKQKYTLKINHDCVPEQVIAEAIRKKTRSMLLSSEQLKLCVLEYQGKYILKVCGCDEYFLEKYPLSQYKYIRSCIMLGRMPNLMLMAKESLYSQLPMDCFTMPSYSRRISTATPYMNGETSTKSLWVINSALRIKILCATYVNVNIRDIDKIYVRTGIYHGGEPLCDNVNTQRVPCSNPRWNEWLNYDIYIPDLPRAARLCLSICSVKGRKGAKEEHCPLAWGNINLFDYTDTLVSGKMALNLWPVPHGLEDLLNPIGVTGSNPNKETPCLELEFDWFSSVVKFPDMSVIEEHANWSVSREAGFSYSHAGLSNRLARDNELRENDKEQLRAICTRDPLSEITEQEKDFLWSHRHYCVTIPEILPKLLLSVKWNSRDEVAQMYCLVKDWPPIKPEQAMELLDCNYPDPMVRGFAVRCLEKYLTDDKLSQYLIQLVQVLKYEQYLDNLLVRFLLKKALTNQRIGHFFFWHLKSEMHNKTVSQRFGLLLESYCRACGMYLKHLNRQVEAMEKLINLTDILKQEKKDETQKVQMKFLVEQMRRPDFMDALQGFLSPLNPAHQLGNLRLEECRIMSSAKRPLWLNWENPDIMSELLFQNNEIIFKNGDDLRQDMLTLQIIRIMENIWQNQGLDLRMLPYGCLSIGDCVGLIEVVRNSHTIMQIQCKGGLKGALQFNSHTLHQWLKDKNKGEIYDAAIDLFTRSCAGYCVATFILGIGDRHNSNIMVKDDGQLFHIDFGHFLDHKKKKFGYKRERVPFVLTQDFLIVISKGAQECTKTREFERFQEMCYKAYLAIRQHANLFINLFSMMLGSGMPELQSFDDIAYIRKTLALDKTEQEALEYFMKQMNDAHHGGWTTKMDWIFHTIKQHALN

Row | SMILES | IC50
1 | COCCNc1nc(-c2ccccc2)nc2ccc(O)cc12 | 15000 nM
2 | c1ccc(-c2nc(N3CCOCC3)c3ccccc3n2)cc1 | 14000 nM
3 | Nc1ccccc1-c1nc(N2CCOCC2)c2cc(O)ccc2n1 | 3900 nM
4 | Oc1cccc2nc(-c3ccccc3)nc(N3CCOCC3)c12 | > 30000 nM
5 | Oc1ccc2nc(-c3ccccc3)nc(N3CCC(O)CC3)c2c1 | 12000 nM
6 | OCc1ccc(-c2nc(N3CCOCC3)c3cc(O)ccc3n2)cc1 | 3700 nM
7 | O=C1CCN(c2nc(-c3ccccc3)nc3ccc(O)cc23)CC1 | 21000 nM
8 | Oc1ccc(-c2nc(N3CCOCC3)c3cc(O)ccc3n2)cc1 | 2800 nM
9 | Oc1ccc2nc(-c3ccccc3O)nc(N3CCOCC3)c2c1 | 2900 nM
10 | COc1ccc2nc(-c3ccccc3)nc(N3CCOCC3)c2c1 | 2100 nM
11 | Oc1ccc2nc(-c3ccccc3)nc(N3CCCCC3)c2c1 | > 60000 nM
12 | Oc1ccc2c(N3CCOCC3)nc(-c3ccccc3)nc2c1 | 9800 nM

These reach a lower IC50. Values come first.

Row | IC50 | SMILES
13 | 75 nM | Oc1cccc(-c2nc(N3CCOCC3)c3cc(O)ccc3n2)c1
14 | 100 nM | OCc1cccc(-c2nc(N3CCOCC3)c3cc(O)ccc3n2)c1
15 | 930 nM | Nc1ccc(-c2nc(N3CCOCC3)c3cc(O)ccc3n2)cc1
16 | 56 nM | Oc1cccc(-c2nc(N3CCOCC3)c3ccccc3n2)c1
17 | 13 nM | Oc1cccc(-c2nc(N3CCOCC3)c3cnccc3n2)c1
18 | 2 nM | Oc1cccc(-c2nc(N3CCOCC3)c3sccc3n2)c1
19 | 440 nM | Nc1cccc(-c2nc(N3CCOCC3)c3cc(O)ccc3n2)c1
20 | 27 nM | Oc1cccc(-c2nc(N3CCOCC3)c3ncccc3n2)c1
21 | 1800 nM | Oc1ccc2nc(-c3cccc(F)c3)nc(N3CCOCC3)c2c1
22 | 600 nM | COc1cccc(-c2nc(N3CCOCC3)c3cc(O)ccc3n2)c1
23 | 19 nM | Oc1cccc(-c2nc(N3CCOCC3)c3ccncc3n2)c1
24 | 1300 nM | Oc1ccc2nc(-c3ccccc3)nc(N3CCOCC3)c2c1

Target: PIK3CB (UniProt P42338)
Sequence (P42338 whole entry, looked up): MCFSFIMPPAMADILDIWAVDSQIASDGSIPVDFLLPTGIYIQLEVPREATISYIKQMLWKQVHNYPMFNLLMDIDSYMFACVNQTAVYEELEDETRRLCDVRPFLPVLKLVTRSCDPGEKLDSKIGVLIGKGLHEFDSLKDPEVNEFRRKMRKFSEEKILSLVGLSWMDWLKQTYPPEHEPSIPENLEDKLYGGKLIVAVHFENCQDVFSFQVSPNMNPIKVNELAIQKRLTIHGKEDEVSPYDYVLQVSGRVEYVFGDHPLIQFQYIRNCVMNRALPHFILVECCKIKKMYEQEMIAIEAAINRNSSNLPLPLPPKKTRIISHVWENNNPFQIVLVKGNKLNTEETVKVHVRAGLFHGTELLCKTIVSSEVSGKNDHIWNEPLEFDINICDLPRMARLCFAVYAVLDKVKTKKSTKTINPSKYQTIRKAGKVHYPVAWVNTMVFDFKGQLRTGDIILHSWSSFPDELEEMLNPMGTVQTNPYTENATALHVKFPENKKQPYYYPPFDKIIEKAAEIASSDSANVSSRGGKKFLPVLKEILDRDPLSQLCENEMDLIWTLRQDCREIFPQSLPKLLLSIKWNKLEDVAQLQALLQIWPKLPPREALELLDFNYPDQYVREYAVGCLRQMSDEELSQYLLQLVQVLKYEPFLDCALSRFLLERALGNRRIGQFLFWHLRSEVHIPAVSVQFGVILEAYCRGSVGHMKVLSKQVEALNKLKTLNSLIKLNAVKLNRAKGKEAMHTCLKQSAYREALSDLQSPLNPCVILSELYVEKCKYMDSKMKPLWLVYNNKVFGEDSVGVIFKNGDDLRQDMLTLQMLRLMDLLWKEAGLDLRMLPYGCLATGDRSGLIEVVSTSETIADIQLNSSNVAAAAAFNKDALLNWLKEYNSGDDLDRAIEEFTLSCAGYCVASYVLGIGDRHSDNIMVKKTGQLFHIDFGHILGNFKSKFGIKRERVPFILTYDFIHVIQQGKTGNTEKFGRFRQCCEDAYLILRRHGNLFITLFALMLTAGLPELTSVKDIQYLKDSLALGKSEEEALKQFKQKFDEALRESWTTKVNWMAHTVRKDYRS
Assay: Inhibition of PIK3CB Kinase Activity

Row | IC50 | SMILES
25 | 16 nM | Oc1cccc(-c2nc(N3CCOCC3)c3sccc3n2)c1

Target: PIK3CG (UniProt P48736)
Sequence (P48736 whole entry, looked up): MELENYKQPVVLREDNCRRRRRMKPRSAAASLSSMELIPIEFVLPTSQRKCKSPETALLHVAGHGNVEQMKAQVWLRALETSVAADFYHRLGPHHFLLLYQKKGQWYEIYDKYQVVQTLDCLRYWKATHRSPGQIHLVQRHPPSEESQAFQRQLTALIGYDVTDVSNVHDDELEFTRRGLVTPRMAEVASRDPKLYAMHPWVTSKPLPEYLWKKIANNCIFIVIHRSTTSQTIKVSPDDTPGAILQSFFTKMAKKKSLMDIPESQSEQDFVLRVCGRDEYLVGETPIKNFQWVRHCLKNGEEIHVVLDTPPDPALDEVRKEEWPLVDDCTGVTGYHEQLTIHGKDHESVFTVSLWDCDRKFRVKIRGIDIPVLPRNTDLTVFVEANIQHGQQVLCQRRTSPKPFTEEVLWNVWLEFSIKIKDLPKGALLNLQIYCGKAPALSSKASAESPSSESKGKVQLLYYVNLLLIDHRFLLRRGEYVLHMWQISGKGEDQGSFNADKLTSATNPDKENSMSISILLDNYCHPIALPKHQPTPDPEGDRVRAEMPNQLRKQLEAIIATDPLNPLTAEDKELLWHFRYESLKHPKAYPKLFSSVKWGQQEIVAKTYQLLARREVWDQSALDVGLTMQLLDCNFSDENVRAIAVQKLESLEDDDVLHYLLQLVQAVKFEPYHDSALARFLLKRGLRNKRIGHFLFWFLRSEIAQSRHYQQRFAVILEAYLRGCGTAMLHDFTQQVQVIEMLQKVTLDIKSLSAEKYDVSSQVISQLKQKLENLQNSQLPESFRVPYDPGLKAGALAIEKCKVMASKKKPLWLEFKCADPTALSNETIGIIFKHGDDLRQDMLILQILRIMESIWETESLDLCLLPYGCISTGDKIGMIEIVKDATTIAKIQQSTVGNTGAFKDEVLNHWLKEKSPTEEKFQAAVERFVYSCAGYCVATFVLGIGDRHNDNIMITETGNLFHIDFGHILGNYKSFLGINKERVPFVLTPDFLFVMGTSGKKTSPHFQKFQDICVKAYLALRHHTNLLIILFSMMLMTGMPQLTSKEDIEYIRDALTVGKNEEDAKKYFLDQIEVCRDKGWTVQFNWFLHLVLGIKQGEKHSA
Assay: Inhibition of PIK3CG Kinase Activity

Row | IC50 | SMILES
26 | 660 nM | Oc1cccc(-c2nc(N3CCOCC3)c3sccc3n2)c1

Target: CDK2 (UniProt P24941)
Assay: Enzyme Assay

Row | IC50 | SMILES
27 | 28000 nM | Oc1cccc(-c2nc(N3CCOCC3)c3sccc3n2)c1
